The text below walks through data of article PMC6306373, “The development of a GPR44 targeting radioligand [^11C]AZ12204657 for in vivo assessment of beta cell mass” (EJNMMI Research, 2018).

This assay has as its target T1, GPR44 (prostaglandin D2 receptor 2, DP2, CRTh2) (Homo sapiens, UniProt Q9Y5Y4).
T1 construct: gene PTGDR2; human recombinant GPR44 co-expressed with Gα16 in HEK293 cell membranes
T1 sequence (Q9Y5Y4 1-395): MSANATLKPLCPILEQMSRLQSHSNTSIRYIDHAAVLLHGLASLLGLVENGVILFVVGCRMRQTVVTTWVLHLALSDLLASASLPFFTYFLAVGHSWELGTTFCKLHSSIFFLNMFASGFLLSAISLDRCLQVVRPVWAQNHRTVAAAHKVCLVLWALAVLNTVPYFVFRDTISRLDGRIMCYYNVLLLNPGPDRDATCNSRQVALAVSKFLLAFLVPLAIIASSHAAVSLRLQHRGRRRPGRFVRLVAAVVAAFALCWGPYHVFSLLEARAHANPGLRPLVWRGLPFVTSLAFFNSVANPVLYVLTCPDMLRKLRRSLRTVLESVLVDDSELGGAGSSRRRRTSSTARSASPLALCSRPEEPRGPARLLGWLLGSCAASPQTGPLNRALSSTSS
The experiment in a line: [3H]PGD2 displacement SPA on HEK293 membranes; also displacement of [[…]-3H-phenoxy]-AZ12204657 by filtration (IC50 […]). The assay is classed as binding.

In turn, `C[C@H](Oc1ccc(Cl)cc1Oc1ccc(S(C)(=O)=O)cc1Cl)C(=O)O` [AZ12204657, (S)-2-(4-chloro-2-[2-chloro-4-(methylsulfonyl)phenoxy]phenoxy) propanoic acid] registered an IC50 of 2.5 nM.

As a reminder, the IC50 is the point on the concentration scale where inhibition reaches its midpoint.
